Laboratory results reported in publication PMC4138991, “Building a Better Dynasore: The Dyngo Compounds Potently Inhibit Dynamin and Endocytosis” (Traffic (Copenhagen, Denmark), 2013).

Tests used:
[1] = tested on: Calyx of Held; design: method as in PMID 18066059; details: 100 μM, 5-min preincubation; cited from earlier work
[2] = biological target: grb2-stimulated dynamin I (from brain) (Ovis aries, UniProt A0ACI6PDC7); experiment: grb2-stimulated (ring) dynamin I GTPase assay; type: biochemical, sheep
grb2-stimulated dynamin I (from brain), sequence (A0ACI6PDC7 entry or part of it): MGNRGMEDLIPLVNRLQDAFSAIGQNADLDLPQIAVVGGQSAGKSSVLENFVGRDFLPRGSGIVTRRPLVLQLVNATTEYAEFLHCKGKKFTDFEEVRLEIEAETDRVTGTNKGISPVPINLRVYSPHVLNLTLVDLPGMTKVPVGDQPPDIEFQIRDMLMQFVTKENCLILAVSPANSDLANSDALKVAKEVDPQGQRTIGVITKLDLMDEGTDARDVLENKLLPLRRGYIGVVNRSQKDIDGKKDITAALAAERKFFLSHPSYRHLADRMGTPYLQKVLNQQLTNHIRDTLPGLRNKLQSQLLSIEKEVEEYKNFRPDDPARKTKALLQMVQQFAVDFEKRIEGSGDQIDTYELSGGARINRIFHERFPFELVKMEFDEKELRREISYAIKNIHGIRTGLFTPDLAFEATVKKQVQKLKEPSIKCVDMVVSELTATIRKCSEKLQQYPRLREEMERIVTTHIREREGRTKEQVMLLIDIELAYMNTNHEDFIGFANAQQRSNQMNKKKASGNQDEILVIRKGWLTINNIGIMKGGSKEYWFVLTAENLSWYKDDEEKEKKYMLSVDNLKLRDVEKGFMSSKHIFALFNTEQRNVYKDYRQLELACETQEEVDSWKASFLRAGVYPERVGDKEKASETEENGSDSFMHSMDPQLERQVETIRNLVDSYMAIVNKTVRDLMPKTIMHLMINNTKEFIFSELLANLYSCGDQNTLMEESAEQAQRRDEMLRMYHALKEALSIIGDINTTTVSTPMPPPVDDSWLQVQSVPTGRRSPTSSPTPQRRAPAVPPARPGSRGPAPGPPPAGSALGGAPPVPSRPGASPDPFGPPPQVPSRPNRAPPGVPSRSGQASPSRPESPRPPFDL
Method: The Malachite Green colorimetric GTPase assay was as described 10. Dynamin I activity was measured in its SAI activity state or was stimulated by three different methods. As each stimulus activates dynamin to different extents, each assay required different dynamin concentrations. First, maximal dynamin activity was stimulated by sonicated PS liposomes 10. Purified dynamin I (10–20 nM, diluted in: 6 mM Tris–HCl, 20 mM NaCl and 0.01% Tween 80, pH 7.4) was incubated in 96‐well plates in GTPase buffer (5 mM Tris–HCl, 10 mM NaCl, 2 mM Mg^2+, 0.05% Tween 80, pH 7.4, 1 µg/mL leupeptin and 0.1 mM PMSF) and GTP 0.3 mM in the presence of test compound for 30 min at 37°C in a final assay volume of 150 μL. Reactions were terminated with 10 μL of 0.5 M ethylenediaminetetraacetic acid (EDTA) pH 7.4 and Malachite Green solution (40 μL: 2% w/v ammonium molybdate tetrahydrate, 0.15% w/v malachite green and 4 M HCl) was added for 5 min. Second, dynamin (20 nM) was stimulated by 10 µg/mL of taxol‐stabilized preformed bovine brain microtubules (Cytoskeleton, Inc) using the same protocol. […] Finally, dynamin (500 nM) SAI activity was measured using high concentrations of dynamin, which promote its cooperative self‐assembly into rings (but not helices) 26. […] After the Vmax and Km values were determined, the data were transformed using the Lineweaver–Burke equation, 1/v = 1/Vmax + (Km/Vmax)(1/[S]).

[3] = biological target: T1, DynI (rec), full-length human dynamin I (Homo sapiens, UniProt Q05193); experiment: PS-stimulated GTPase assay with recombinant dynamin I from Sf21 cells; type: biochemical; details: for IC50: DynI 20 nM, no unit in table; for DynI selectivity ratio: DynI (rec) versus DynII (rec)
T1 sequence (Q05193 1-864): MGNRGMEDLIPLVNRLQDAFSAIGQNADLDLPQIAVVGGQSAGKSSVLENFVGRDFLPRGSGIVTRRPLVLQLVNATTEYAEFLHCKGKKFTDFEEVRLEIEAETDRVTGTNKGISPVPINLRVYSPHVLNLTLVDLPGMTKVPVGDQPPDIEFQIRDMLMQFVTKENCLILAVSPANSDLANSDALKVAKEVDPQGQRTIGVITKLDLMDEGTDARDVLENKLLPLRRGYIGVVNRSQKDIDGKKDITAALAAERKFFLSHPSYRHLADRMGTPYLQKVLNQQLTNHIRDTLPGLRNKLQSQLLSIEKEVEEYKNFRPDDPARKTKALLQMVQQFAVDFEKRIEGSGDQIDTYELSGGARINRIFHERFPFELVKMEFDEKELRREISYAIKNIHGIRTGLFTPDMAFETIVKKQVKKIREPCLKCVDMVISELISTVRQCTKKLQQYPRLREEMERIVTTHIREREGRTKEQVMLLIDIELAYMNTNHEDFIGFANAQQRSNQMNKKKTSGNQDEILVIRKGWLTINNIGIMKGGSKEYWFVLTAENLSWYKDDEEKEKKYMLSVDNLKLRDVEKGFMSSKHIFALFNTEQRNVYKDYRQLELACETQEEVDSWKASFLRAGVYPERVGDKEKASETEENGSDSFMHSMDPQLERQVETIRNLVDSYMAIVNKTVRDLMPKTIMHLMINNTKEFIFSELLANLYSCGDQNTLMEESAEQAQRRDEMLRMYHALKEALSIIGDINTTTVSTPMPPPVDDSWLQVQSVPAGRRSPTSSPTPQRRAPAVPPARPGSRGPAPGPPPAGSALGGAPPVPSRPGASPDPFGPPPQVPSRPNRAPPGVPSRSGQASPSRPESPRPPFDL
Excerpt: Recombinant dynamin I was used only for the data in Table 2. The dynamin antibodies were from: Dynamin I—in‐house YF2 antibodies, raised in rabbits against two different synthetic peptides: dynamin I 629‐647 ([…]) and dynamin I 765–778 ([…]), used at 1/2000 dilution, as previously described 53; Dynamin II—Santa Cruz (C‐18, sc‐6400, used at 1/1000) and Dynamin III—Santa Cruz (P‐13, sc‐69472, used at 1/500 dilution).
The Malachite Green colorimetric GTPase assay was as described 10. Dynamin I activity was measured in its SAI activity state or was stimulated by three different methods. As each stimulus activates dynamin to different extents, each assay required different dynamin concentrations. First, maximal dynamin activity was stimulated by sonicated PS liposomes 10. Purified dynamin I (10–20 nM, diluted in: 6 mM Tris–HCl, 20 mM NaCl and 0.01% Tween 80, pH 7.4) was incubated in 96‐well plates in GTPase buffer (5 mM Tris–HCl, 10 mM NaCl, 2 mM Mg^2+, 0.05% Tween 80, pH 7.4, 1 µg/mL leupeptin and 0.1 mM PMSF) and GTP 0.3 mM in the presence of test compound for 30 min at 37°C in a final assay volume of 150 μL. Reactions were terminated with 10 μL of 0.5 M ethylenediaminetetraacetic acid (EDTA) pH 7.4 and Malachite Green solution (40 μL: 2% w/v ammonium molybdate tetrahydrate, 0.15% w/v malachite green and 4 M HCl) was added for 5 min. Second, dynamin (20 nM) was stimulated by 10 µg/mL of taxol‐stabilized preformed bovine brain microtubules (Cytoskeleton, Inc) using the same protocol. Third, dynamin I (50 nM) was stimulated by 1 μM of recombinant growth factor receptor‐bound protein 2 (grb2), a SH3 (Src homology)‐containing protein that stimulates dynamin about 5–10 times less efficiently than liposomes or microtubules 54. The assay conditions were as described above. Finally, dynamin (500 nM) SAI activity was measured using high concentrations of dynamin, which promote its cooperative self‐assembly into rings (but not helices) 26. The final DMSO concentration in the GTPase or endocytosis assays was at most 3.3 or 1%, respectively, but typically was at 1%. The GTPase assay for dynamin I was unaffected by DMSO up to 3.3%. Compounds were dissolved as 30 mM stocks in 100% DMSO. These stock solutions can be stored at −20°C for several months. Compounds were subsequently diluted into solutions of 50% DMSO made up in 20 mM Tris–HCl pH 7.4 and diluted again into the final assay. For analysis of the kinetics of 4a inhibition, dynamin I at a final concentration of 17 nM was incubated with GTPase buffer containing PS (2 µg/mL) and varying amounts of GTP (50–250 μM) in the presence of 4a at a concentration range between 0.5 and 6 μM. […] After the Vmax and Km values were determined, the data were transformed using the Lineweaver–Burke equation, 1/v = 1/Vmax + (Km/Vmax)(1/[S]).

[4] = tested on: synaptosomes; experiment: Glutamate release from synaptosomes (4-AP stimulated); type: cell-based, rat; details: 20 μM, 30 min pretreatment, 3 mM 4-AP
Method: Release of glutamate from synaptosomes was performed as described previously 60, with minor changes. The assay was carried out at 37°C in a Perkin Elmer LS50 fluorimeter. Control (1% DMSO) and 4a‐treated samples were incubated in the presence of the compound for 30 min prior to stimulation of glutamate release. For each sample, 1 mg of crude P2 synaptosomes was diluted in 2 mL of HEPES‐buffered Krebs‐like buffer, either containing 1 mM EGTA (zero Ca^2+) or 1 mM EGTA plus 3 mM […] (2 mM free Ca^2+). NAPD^+ (3 mM) and glutamic acid dehydrogenase (50 U) were added and allowed to incubate for 15 min to allow residual glutamate in the sample to be metabolized. 4‐AP (3 mM) was subsequently added to stimulate glutamate release, which was recorded over a 5‐min period. Readings of fluorescence were taken every 2 seconds. All treatment conditions were carried out in zero Ca^2+ and 2 mM Ca^2+ conditions with the zero Ca^2+ measurement subtracted from the 2 mM measurement for each time point. […] Each treatment was carried out in duplicate within a single experiment and each independent experiment was carried out three times on separate days using synaptosomes prepared from fresh rat brain tissue ([…]).

Row | Structure (SMILES) | SVE at the Calyx of Held [1] | block of grb2-SH3 stimulated ring dynamin activity ([2]; presence of Tween-80) | fold reduced activity against grb2-stimulated ring dynamin versus PS-stimulated helical dynamin ([2]; without Tween-80) | IC50 ([3]; Absence of Tween) [µM] | DynI selectivity ratio ([3]; Absence of Tween) | IC50 ([3]; Presence of Tween) [µM] | DynI selectivity ratio ([3]; Presence of Tween) | Ca2+-dependent glutamate release [4]
1 | O=C(N/N=C/c1ccc(O)c(O)c1)c1cc2ccccc2cc1O [Dynasore, (E)-N'-(3,4-Dihydroxybenzylidene)-3-hydroxy-2-naphthohydrazide] | inhibit SVE | did not block | threefold less potent | – | – | – | – | –
2 | O=C(N/N=C/c1cc(O)c(O)cc1O)c1cc2ccccc2cc1O [4a, (E)-3-Hydroxy-N'-(2,4,5-trihydroxybenzylidene) -2-naphthohydrazide] | – | – | – | 1.1 ± 0.2 | 2.1 | 30 ± 8.2 | 3.1 | decrease in the release of glutamate only after 45 seconds
